Source: patent US20170152269A1, “FUSED BICYCLIC COMPOUNDS AND THEIR USE AS CDK INHIBITORS” (priority 2016, published 2017)

Tests used:
CDK9/cyclin T1 = target: T1, CDK9/cyclin T1 (Homo sapiens, UniProt P50750); assay: LanthaScreen Eu kinase binding assay, CDK9; details: tracer 236 displacement, CDK9/cyclin T1 5 nM, 1 hour; read-out: CDK 9 inhibitory activity (IC50)
T1 construct: purchased ThermoFisher (Waltham, Mass.)
Protocol: (§1) Time Resolved-Fluorescent Resonance Energy Transfer (TR-FRET) was used to determine inhibitory ability of compounds A1˜A19, B1s and B1˜B12 against the enzymatic activity of CDK1, CDK2, CDK4, CDK5, CDK6, CDK7, and CDK9.
The CDK9 kinase inhibitory activity of compounds was tested in the LanthaScreen Eu kinase binding assay from ThermoFisher. LanthaScreen® Eu Kinase binding assays are based on the binding and displacement of a proprietary, Alexa Fluor® 647-labeled, ATP-competitive kinase inhibitor scaffold (kinase tracer) to CDK9. CDK9/cyclin T1, Kinase tracer 236 and LanthaScreen® Eu-anti-His Antibody were purchased form ThermoFisher (Waltham, Mass.). 5 μL of CDK9/cyclin T1 (final 5 nM)/antibody (final 2 nM) mixture, 5 μL of compound in kinase buffer, and 5 μL of tracer (final 30 nM) were added to wells of a white OptiPlate-384 plate in this specific order. Assay plates were covered to protect from light, spun for 1 min at 700 RPM and incubated at room temperature for 1 hour. Assay plates were read with the EnVision™ Multilabel Reader in TR-FRET mode (excitation at 320 nm and emission at 665 nm). The percent of inhibition was calculated from the means of data points using the formula: 100−(Signalcompound−NoSignalbackgound)*100/(Signalvehicle−NoSignalbackground). The IC50s were determined with GraphPad Prism by the non-linear sigmoidal curve fitting of data from 10 doses.

CDK7 = target: T2, CDK7 (Homo sapiens, UniProt P50613); assay: Lance TR-FRET kinase assay, CDK7; assay type: biochemical; details: ATP 50 μM, 60 min; for IC50: read-out: CDK 7 inhibitory activity (IC50)
T2 construct: purchased ThermoFisher (Waltham, Mass.)
T2 sequence (P50613 whole entry): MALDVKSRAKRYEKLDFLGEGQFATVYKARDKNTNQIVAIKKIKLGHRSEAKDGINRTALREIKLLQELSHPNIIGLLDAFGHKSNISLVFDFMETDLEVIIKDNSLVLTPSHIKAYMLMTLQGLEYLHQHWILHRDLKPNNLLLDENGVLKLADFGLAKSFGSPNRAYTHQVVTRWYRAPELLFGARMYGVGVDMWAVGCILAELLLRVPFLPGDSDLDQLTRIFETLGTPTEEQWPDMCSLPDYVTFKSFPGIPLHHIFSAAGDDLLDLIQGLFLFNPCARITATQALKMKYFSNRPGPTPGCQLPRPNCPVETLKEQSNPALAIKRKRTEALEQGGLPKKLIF
T2 sequence (P51946 whole entry partner): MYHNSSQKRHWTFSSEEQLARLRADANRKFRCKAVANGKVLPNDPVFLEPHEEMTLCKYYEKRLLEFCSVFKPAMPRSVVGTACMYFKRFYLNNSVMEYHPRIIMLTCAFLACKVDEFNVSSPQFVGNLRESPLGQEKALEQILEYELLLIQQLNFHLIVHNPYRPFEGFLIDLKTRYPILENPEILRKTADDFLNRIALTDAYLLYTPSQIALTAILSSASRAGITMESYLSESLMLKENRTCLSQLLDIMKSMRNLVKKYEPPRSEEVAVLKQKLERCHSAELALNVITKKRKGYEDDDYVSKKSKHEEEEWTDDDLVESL
T2 sequence (P51948 whole entry partner): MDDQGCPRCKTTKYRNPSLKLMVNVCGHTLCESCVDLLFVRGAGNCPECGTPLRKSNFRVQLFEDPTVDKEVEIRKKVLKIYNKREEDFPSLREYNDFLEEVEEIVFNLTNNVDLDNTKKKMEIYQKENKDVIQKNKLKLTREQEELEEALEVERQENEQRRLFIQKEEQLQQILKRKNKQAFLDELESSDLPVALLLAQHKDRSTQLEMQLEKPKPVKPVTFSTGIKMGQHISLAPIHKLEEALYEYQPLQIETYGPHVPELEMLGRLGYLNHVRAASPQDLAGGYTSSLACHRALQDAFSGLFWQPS
Protocol: (§2) Inhibitory activity of compounds against CDK1/2/4/5/6/7 was assessed using Lance TR-FRET assay kits from Perkin Elmer Life Sciences (Waltham, Mass.). CDK1/2/4/5/6/7 enzymes were purchased from ThermoFisher (Waltham, Mass.). […] Final concentrations of substrates and DMSO were 100 nM and 0.5%, respectively. Concentrations of ATP and different CDK enzymes were adjusted accordingly to achieve optimal enzymatic activities. Final CDK concentrations were 100, 500, 600, 100, 50, and 200 ng/well and ATP concentrations were 30, 50, 100, 20, 100, and 50 μM for CDK1/2/4/5/6/7, respectively. Assay plates were covered to protect from light and spun for 1 min at 700 RPM. Reactions were allowed to perform for 60 minutes in dark with gentle shaking at room temperature after which 5 μL of 40 mM EDTA in detection buffer was added to stop reactions followed 5 μL of the Eu labeled antibodies giving final concentrations of 2 nM to detect the phosphorylation of the peptide substrates. […] The percent of inhibition was calculated from the means of data points using the formula: 100−(Signalcompound−NoSignalbackground)*100/(Signalvehicle−NoSignalbackground). The IC50s were determined with GraphPad Prism by the non-linear sigmoidal curve fitting of data from 10 doses.

CDK2 = target: T3, CDK2 (Homo sapiens, UniProt P24941); assay: Lance TR-FRET kinase assay, CDK2; assay type: biochemical; details: ATP 50 μM, 60 min, read-out: CDK 2 inhibitory activity (IC50)
T3 construct: purchased ThermoFisher (Waltham, Mass.)
Protocol: as §1
(§3) Inhibitory activity of compounds against CDK1/2/4/5/6/7 was assessed using Lance TR-FRET assay kits from Perkin Elmer Life Sciences (Waltham, Mass.). CDK1/2/4/5/6/7 enzymes were purchased from ThermoFisher (Waltham, Mass.). 2.5 μL of compound solutions and 2.5 μL of enzyme solutions in kinase assay buffer, which was 50 mM HEPES (pH 7.5) with 1 mM EGTA, 1 mM MgCl2, 2 mM DTT, and 0.01% Tween-20, were added into a white OptiPlate-384 plate followed by adding 5 μL of fluorescently labeled peptide substrates (Ulight-4E-BP1 for CDK4/6 and Ulight-MBP for […]) and ATP mixture solutions. Final concentrations of substrates and DMSO were 100 nM and 0.5%, respectively. Concentrations of ATP and different CDK enzymes were adjusted accordingly to achieve optimal enzymatic activities. Final CDK concentrations were 100, 500, 600, 100, 50, and 200 ng/well and ATP concentrations were 30, 50, 100, 20, 100, and 50 μM for CDK1/2/4/5/6/7, respectively. Assay plates were covered to protect from light and spun for 1 min at 700 RPM. Reactions were allowed to perform for 60 minutes in dark with gentle shaking at room temperature after which 5 μL of 40 mM EDTA in detection buffer was added to stop reactions followed 5 μL of the Eu labeled antibodies giving final concentrations of 2 nM to detect the phosphorylation of the peptide substrates. Assay plates were read with the EnVision™ Multilabel Reader in TR-FRET mode (excitation at 320 nm and emission at 665 nm). The percent of inhibition was calculated from the means of data points using the formula: 100−(Signalcompound−NoSignalbackground)*100/(Signalvehicle−NoSignalbackground). The IC50s were determined with GraphPad Prism by the non-linear sigmoidal curve fitting of data from 10 doses.

CDK6 = target: T4, CDK6 (Homo sapiens, UniProt Q00534); assay: Lance TR-FRET kinase assay, CDK6; assay type: biochemical
T4 construct: purchased ThermoFisher (Waltham, Mass.)
T4 sequence (Q00534 whole entry): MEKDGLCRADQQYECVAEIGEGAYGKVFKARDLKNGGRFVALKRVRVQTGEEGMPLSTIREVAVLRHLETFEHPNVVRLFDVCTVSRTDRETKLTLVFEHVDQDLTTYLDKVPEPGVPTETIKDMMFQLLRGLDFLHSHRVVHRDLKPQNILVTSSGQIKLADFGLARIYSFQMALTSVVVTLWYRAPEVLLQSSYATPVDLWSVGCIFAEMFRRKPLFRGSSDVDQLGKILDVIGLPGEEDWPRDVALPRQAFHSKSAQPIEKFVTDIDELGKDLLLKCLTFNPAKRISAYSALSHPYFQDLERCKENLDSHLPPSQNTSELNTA
T4 sequence (P24385 whole entry partner): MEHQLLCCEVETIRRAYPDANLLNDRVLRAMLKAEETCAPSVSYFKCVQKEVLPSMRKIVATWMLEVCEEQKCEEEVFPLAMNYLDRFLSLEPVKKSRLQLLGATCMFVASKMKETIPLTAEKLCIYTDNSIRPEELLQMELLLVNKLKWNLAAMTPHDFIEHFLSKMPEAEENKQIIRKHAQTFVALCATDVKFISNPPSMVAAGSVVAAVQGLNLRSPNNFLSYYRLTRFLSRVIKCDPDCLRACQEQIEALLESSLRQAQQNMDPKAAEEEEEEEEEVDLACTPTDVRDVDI
Protocol: as §1, §3

CDK1 = target: T5, CDK1 (Homo sapiens, UniProt P06493); assay: Lance TR-FRET kinase assay, CDK1; assay type: biochemical; details: ATP 30 μM, 60 min, read-out: CDK 1 inhibitory activity (IC50)
T5 construct: purchased ThermoFisher (Waltham, Mass.)
T5 sequence (P06493 whole entry): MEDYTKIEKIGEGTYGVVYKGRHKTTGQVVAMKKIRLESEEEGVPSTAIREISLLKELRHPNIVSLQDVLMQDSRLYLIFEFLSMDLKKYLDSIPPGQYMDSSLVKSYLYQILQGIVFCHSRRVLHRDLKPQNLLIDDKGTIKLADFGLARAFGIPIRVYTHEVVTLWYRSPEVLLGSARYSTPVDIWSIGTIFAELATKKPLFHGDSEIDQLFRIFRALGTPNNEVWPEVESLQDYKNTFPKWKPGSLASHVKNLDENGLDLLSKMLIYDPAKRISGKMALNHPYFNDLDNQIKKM
T5 sequence (P14635 whole entry partner): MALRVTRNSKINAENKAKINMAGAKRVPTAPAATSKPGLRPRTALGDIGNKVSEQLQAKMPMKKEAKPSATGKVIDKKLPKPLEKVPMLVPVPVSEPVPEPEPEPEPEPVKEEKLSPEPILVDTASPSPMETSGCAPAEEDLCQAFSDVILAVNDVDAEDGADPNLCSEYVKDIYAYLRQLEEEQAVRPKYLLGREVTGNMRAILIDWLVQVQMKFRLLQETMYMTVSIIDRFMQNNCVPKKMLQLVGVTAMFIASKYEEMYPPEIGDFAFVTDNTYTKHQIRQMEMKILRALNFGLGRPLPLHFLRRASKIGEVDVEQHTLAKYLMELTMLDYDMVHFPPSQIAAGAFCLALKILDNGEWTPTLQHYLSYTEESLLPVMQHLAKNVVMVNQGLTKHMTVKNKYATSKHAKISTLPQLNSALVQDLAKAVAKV
Protocol: as §1, §3

CDK4 = target: T6, CDK4 (Homo sapiens, UniProt P11802); assay: Lance TR-FRET kinase assay, CDK4; assay type: biochemical; details: ATP 100 μM, 60 min, read-out: CDK 4 inhibitory activity (IC50)
T6 construct: purchased ThermoFisher (Waltham, Mass.)
T6 sequence (P11802 whole entry): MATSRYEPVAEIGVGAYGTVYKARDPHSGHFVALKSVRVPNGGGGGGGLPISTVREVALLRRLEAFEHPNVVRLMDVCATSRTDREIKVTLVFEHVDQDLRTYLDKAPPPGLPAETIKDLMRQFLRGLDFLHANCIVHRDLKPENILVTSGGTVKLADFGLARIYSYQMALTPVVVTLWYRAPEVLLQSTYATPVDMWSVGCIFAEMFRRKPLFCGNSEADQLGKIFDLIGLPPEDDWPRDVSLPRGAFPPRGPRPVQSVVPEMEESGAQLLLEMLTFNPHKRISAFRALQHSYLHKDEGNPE
T6 sequence (P24385 whole entry partner): as the sequence (P24385 whole entry partner) above
Protocol: as §2

T1 sequence (P50750 whole entry): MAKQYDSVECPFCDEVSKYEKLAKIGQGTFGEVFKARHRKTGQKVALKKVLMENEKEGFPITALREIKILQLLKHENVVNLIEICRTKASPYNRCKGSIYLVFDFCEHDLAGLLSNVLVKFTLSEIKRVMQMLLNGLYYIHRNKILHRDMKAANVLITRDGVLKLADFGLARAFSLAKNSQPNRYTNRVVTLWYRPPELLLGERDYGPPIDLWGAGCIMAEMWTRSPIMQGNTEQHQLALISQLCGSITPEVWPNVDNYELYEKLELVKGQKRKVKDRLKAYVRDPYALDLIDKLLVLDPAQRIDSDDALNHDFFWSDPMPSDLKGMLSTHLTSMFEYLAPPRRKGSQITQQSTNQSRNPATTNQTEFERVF
T1 sequence (O60563 whole entry partner): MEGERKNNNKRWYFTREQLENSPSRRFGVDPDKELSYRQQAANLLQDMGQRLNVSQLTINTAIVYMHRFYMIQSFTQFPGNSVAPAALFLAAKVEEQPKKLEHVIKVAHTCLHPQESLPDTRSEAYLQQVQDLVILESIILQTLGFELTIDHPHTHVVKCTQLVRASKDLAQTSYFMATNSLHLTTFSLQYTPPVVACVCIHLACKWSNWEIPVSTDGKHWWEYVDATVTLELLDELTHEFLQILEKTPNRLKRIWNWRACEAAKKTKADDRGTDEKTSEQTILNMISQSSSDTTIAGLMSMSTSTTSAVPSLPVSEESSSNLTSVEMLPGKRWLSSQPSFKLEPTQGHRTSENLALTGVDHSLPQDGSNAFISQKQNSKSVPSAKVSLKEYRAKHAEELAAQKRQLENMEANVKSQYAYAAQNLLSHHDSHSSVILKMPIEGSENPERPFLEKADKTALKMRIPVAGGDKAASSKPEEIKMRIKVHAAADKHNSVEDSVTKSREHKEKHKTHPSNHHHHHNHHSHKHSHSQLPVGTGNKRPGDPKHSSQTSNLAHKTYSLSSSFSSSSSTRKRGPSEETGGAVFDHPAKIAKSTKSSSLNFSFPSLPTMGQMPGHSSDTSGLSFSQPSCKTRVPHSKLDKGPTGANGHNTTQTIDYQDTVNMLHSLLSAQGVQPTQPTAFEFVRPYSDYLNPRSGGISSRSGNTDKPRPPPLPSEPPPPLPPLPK

| Structure (SMILES) | IC50 (CDK9/cyclin T1) | IC50 (CDK7) | IC50 (CDK2) | IC50 (CDK6) | IC50 (CDK1) | IC50 (CDK4) | CDK 7 inhibitory activity (IC50) (CDK7) |
| --- | --- | --- | --- | --- | --- | --- | --- |
| N#Cc1sc2cnc(Nc3ccc(N4CCNCC4)nc3)cc2c1C1CCCC1 [Compound B2, 3-cyclopentyl-5-((6-(piperazin-1-yl)pyridin-3-yl)amino)thieno[2,3-c]pyridine-2-carbonitrile] | 0.0066 µM | 0.0539 µM | 0.0133 µM | 0.001 µM | 0.0774 µM | 0.0024 µM |  |
| N#Cc1sc2cnc(Nc3ccc(N4CCNCC4)cc3)cc2c1C1CCCC1 [Compound B3, 3-cyclopentyl-5-((4-(piperazin-1-yl)phenyl)amino)thieno[2,3-c]pyridine-2-carbonitrile] | 0.0018 µM | 0.0314 µM | 0.0052 µM | 0.0002 µM | 0.0151 µM | 0.0019 µM |  |
| CN1CCN(c2ccc(Nc3cc4c(C5CCCC5)c(C#N)sc4cn3)cc2)CC1 [Compound B4, 3-cyclopentyl-5-((4-(4-methylpiperazin-1-yl)phenyl)amino)thieno[2,3-c]pyridine-2-carbonitrile] | 0.0086 µM | 0.047 µM | 0.0104 µM | 0.0007 µM | 0.0315 µM | 0.0019 µM |  |
| CN1CCN(c2ccc(Nc3cc4c(C5CCCC5)c(C#N)sc4cn3)nc2)CC1 [Compound B5, 3-cyclopentyl-5-((5-(4-methylpiperazin-1-yl)pyridin-2-yl)amino)thieno[2,3-c]pyridine-2-carbonitrile] | 0.001 µM | 0.0221 µM | 0.0033 µM | 0.0003 µM | 0.0091 µM | 0.0007 µM |  |
| N#Cc1sc2cnc(Nc3ccc(N4CCOCC4)cc3)cc2c1C1CCCC1 [Compound B6, 3-cyclopentyl-5-((4-morpholinophenyl)amino)thieno[2,3-c]pyridine-2-carbonitrile] | 0.951 µM |  | 0.0396 µM | 0.019 µM | 1.68 µM | 0.222 µM | inactive |
| N#Cc1sc2cnc(Nc3ccc(N4CCOCC4)nc3)cc2c1C1CCCC1 [Compound B7, 3-cyclopentyl-5-((6-morpholinopyridin-3-yl)amino)thieno[2,3-c]pyridine-2-carbonitrile] | 0.0956 µM |  | 0.0194 µM | 0.0194 µM | 0.324 µM | 0.0619 µM | inactive |
| N#Cc1sc2cnc(Nc3cnc(N4CCOCC4)nc3)cc2c1C1CCCC1 [Compound B8, 3-cyclopentyl-5-((2-morpholinopyrimidin-5-yl)amino)thieno[2,3-c]pyridine-2-carbonitrile] | 4.59 µM |  | 0.824 µM | 0.791 µM | 22 µM | 8.66 µM | inactive |
| CN1CCN(c2cccc(Nc3cc4c(C5CCCC5)c(C#N)sc4cn3)c2)CC1 [Compound B9, 3-cyclopentyl-5-((3-(4-methylpiperazin-1-yl)phenyl)amino)thieno[2,3-c]pyridine-2-carbonitrile] | 0.0965 µM | 0.872 µM | 0.0708 µM | 0.12 µM | 0.17 µM | 0.582 µM |  |
| N#Cc1sc2cnc(Nc3cccc(N4CCOCC4)c3)cc2c1C1CCCC1 [Compound B10, 3-cyclopentyl-5-((3-morpholinophenyl)amino)thieno[2,3-c]pyridine-2-carbonitrile] | 0.308 µM |  | 0.308 µM | 0.838 µM | 0.834 µM | 1.54 µM | inactive |
| CS(=O)(=O)N1CCN(c2ccc(Nc3cc4c(C5CCCC5)c(C#N)sc4cn3)nc2)CC1 [Compound B11, 3-cyclopentyl-5-((5-(4-(methylsulfonyl)piperazin-1-yl)pyridin-2-yl)amino)thieno[2,3-c]pyridine-2-carbonitrile] | 0.0081 µM |  | 0.0499 µM | 0.0055 µM | 0.101 µM | 0.0177 µM | inactive |
